Common to all, as to assay type: cell-based, human
The test system of experiment [1] is intracellular calcium stores release. As to the kind of experiment: FcεRI-induced intracellular calcium (Fura-2) in MC. As to conditions: 10 μg/mL overnight; anti-FcεRI 1 μg/mL. The procedure: MC were pre-treated with or without fullerene derivatives as above, washed with Tyrodes buffer supplemented with BSA, and incubated with Fura-2 AM (2 μM) for 30 minutes at 37° C. Cells were washed, stimulated with anti-FcεRI, and calcium flux measured in real time on a Perkin Elmer LS55 Spectrofluorometer. For ROS production, cells were exposed to fullerene derivatives as above. After washing, cells were re-suspended in X-Vivo medium containing 5 μM dichlorodihydrofluorescein (DCF) at 37° C. for 30 minutes, washed, and activation-induced changes in mean fluorescence was measured with excitation at 502 nm and emission at 523 nm for 15 minutes (19). The data is presented as fluorescence intensity of the 523 nm emission over time. All experiments were performed in triplicate and degranulation was measured in parallel.
Cells were incubated with or without fullerene derivative (10 μg/mL) overnight. The next day cells were challenged with anti-FcεRI (3B4; 1 μg/mL) and calcium stores release was determined by the 340/380 nm ratio (FIGS. 11A and 11B) and ROS measured by DCF detection at 523 nm (FIGS. 11C and 11D). FIGS. 11A and 11C contain cells incubated with the TGA fullerene derivative, and FIGS. 11B and 11D contain cells incubated with the Inos fullerene derivative (10 μg/mL). […]

A further experiment relates to AKT phosphorylation. The experiment is described as follows: Western blotting of FcεRI-activated phospho-signaling in MC: AKT. The note with it: 10 μg/mL overnight. As to the method: (§1) Cell lysate preparation and Western blotting were performed using a protocol optimized for extracting phospho-proteins from human MC. Tkaczyk, C., Metcalfe, D. D., and Gilfillan, A. M. J. Immunol. Methods 268, 239-243 (2002). Following activation, cells were lysed directly in boiling denaturing sample buffer consisting of tris-buffered saline with triton-X-100 (0.5%) and protease and phosphatase inhibitors. The cell suspension was then passed through a 20-gauge needle, boiled, and centrifuged to remove cell debris. Proteins were separated on 8% or 10% NuPage Tris-Bis gels using Licor running buffer. Western blotting was performed using Licor blocking buffer and IR800 and IR700 anti-rabbit F(ab)2 secondary Abs (1:1000). Primary Abs were from Cell Signaling Technologies or Santa Cruz unless otherwise noted. Band intensities were captured using the Odyssey Imaging System and bands quantified by measuring the number of pixels in each band using a box drawn for the same area of measurement for each separate blot. The band intensity was then normalized for loading by dividing the number of pixels in each band with the housekeeping band intensity (β-actin) performed on the same blot.
(§2) MC were pretreated with Inos or TGA (10 μg/mL) overnight at 37° C./6% CO2. The next day washed cells were activated with or without anti-FcεRI (1 μg/mL) for the indicated times and lysed using protocols described above. Two separate 10% Tris-Glycine gels were used for sodium dodecyl sulfate polyacrylamide gel electrophoresis (SDS-PAGE) and Western blotting performed with the indicated phosphorylation-specific (i.e., phosph-Lyn) antibodies. To ensure equal loading, an antiactin antibody was used in parallel. The intensity of each band was detected and quantified using an Odyssey imaging system. Band intensities are presented as a ratio compared to antiactin band intensities probed in the same lane and presented for each time point in the colored graphs on the right side. Results are representative of three separate experiments. […]

For another experiment, the system named is LAT phosphorylation. The experiment is described as follows: Western blotting of FcεRI-activated phospho-signaling in MC: LAT. The note with it: 10 μg/mL overnight. The procedure:
as §1, §2

Experiment [2] concerns PI3-kinase phosphorylation. The experiment is described as follows: Western blotting of FcεRI-activated phospho-signaling in MC: PI3-kinase. As to conditions: 10 μg/mL overnight. As to the method: as §1, §2
(Immunoblotting shows a protein as a band on a membrane.)

The next experiment concerns Lyn. The experiment is described as follows: Lyn gene (microarray) and protein (Western blotting) expression in MC. As to the method:
Mast cells (1×10^7 cell/condition; each condition performed in triplicate) were incubated with or without fullerene derivatives as above and incubated with or without anti-FcεRI antibodies for 10 minutes, supernatants were removed (to remove pre-formed mediators), […] Cells were centrifuged, the supernatant and the pellet immediately frozen and microarray performed using the Human Whole Genome OneArray™ gene expression profiling service (Phalanx Biotech Group). Separate samples, assayed in parallel were lysed and protein expression analyzed by Western blotting or flow cytometry (CD45) as described in Kepley, C. L., Pfeiffer, J., Wilson, B. W., Schwartz, L. B., and Oliver, J. M. J. Leukocyte Biol. 64, 474-483 (1998).
In order to examine the genes most affected by fullerene derivative preincubation the resulting values were sorted and filtered the following way. First, the mean (±SD) of the six values from each condition for each of the 30,970 genes was calculated. Second, only normalized value intensities of >100 were included so that follow up detection of protein levels would be more likely to be successful. […]

C70-tetraglycolic acid [TGA]: the “FcεRI-induced intracellular calcium stores release” value in experiment [1] is “inhibited”. The “inhibited AKT phosphorylation” value in the experiment with AKT phosphorylation (3 minutes anti-FcεRI) turned out to be 10%; in the experiment with AKT phosphorylation (5 minutes anti-FcεRI), 36%; in the experiment with AKT phosphorylation (10 minutes anti-FcεRI), 43%. Further, the “reduced LAT phosphorylation” value in the experiment with LAT phosphorylation (3 minutes) was 36%; with LAT phosphorylation (5 minutes), 72%; in the experiment on LAT phosphorylation (10 minutes), 69%. The “reduced PI3-kinase phosphorylation” value is 15% in experiment [2] (3 minutes), 35% in experiment [2] (5 minutes) and 50% in experiment [2] (10 minutes). Besides, the “Lyn gene expression levels reduced” value in the experiment on Lyn (at 2 hours) came out at 51%. In addition, the “Lyn inhibition at the protein level” value with Lyn (at 6 hours) is 92%.

The values above are taken from US20110251158A1, “FULLERENE THERAPIES FOR INFLAMMATION AND INHIBITION OF BUILD-UP OF ARTERIAL PLAQUE” (Luna Innovations Incorporated, priority 2008, published 2011).
